Experimental data published in patent US9526739B2, “Compositions and methods to treat cardiac diseases” (University of Connecticut, priority 2010, dated 2016).
Where “and” joins values, the source holds several entries; their conditions need not be identical. Identical values can stand only once. Entries after “also recorded” stand apart in the source; their conditions may differ.

Key:
CSQ heart failure mice [1] = assay: Echocardiography-derived fractional shortening in CSQ heart failure mice after 28 days of subcutaneous minipump infusion; type: in vivo, mouse; conditions: for cardioprotection in the CSQ model (in words) / effect on echocardiography-derived FS / cardiac contractile function versus normal saline (in words): 3.3 μM, 28 days of infusion, CSQ mice; for FS in % in CSQ Mice: at 3.3 μM, subcutaneous Alzet minipump infusion, 28 days, vehicle control 13.78 ± 1.19% (n = 16)
Description: Two of the phosphonates, 4 and 9, were able to cause an improved FS as compared to vehicle (FIG. 1, Table 1) and in comparison to the reference nucleotide 3. […] Thus, in the saturated phosphonate series, the orientation of the phosphorous relative to the methanocarba ring was somewhat structurally permissive, although inclusion of an olefin in the spacer prevented the cardioprotective action. In 11, one OH group of the phosphonate has been replaced with CH3. This reduces the overall charge on the molecule and is intended to make it more bioavailable. Evidently, the binding site of the receptor requires both oxygens for the most favorable improvement in FS. Therefore, as summarized in FIG. 1, the most significant improvement in FS was associated with the saturated homologues containing a 2-Cl substitution and an unmodified phosphonate group, 4 and 9.
Compound 3 and its analogues were dissolved in phosphate-buffered saline, pH=7.4 at 3.3 μM (200 μL total volume), filtered for sterility for in vivo administration at 6 μL per day for 28 days via a mini-osmotic pump (Alzet) in the CSQ mice. Intact heart function in vivo was assessed by echocardiography following infusion of nucleotide- or vehicle

[2] = Stability in aqueous medium at pH 1.5 (simulated stomach acid); type: physicochemical; conditions: pH 1.5, over 24 hours
Description: (§1) The synthetic nucleotide analogue 3 activates the native cardiac P2X receptor, as indicated in electrophysiological experiments with normal cardiac myocytes and those that overexpress CSQ and based on its in vivo ability to improve the heart failure phenotype of these animals. The rigid carbocyclic ring system contained in this derivative stabilizes nucleotides toward the action of nucleotidases. […] In the present study, we have synthesized fully hydrolysis-resistant adenosine monophosphate derivatives based on phosphonate linkages.

[3] = Hydrolysis on incubation at 37° C. with mammalian cell membranes (1321N1 astrocytoma cells); type: in vitro ADME; conditions: 1321N1 astrocytoma cell membranes
Description: as §1
Further, the 5′-phosphate 3 and the prodrug 9a (MRS2944) are stable to acidic conditions representative of stomach acid (pH 1.5). […] Without being held to theory, it is believed that the prodrug approach will allow the masked drug to pass through the stomach to be absorbed intact in the intestines, and for the charged phosphoryl group to remain intact until the free drug reaches the site of action in the heart. Therefore, the stable phosphonates would be suitable in this scheme. The cleavage of the prodrug derivatives is to occur in circulation prior to reaching the tissue site of action, because intracellular internalization would be undesirable. Therefore, many of the prodrug schemes that aim for penetration of the masked drug into the cells, i.e. for antiviral or anticancer application of nucleotide derivatives, would likely not be suitable here.

CSQ heart failure mice [4] = assay: Echocardiography (FS, LV wall thickness) in CSQ heart failure mice after 14 days of infusion; conditions: for cardioprotection in CSQ mice (in words) / effect on LV fractional shortening versus normal saline (in words): 14 days (two-week) infusion; for FS in % in CSQ Mice: at 10μM, 14 days of infusion, vehicle control 7.13 ± 1.49% (n = 4), phenotypically more severe CSQ mice than in Table 1; for prevention of LV wall thinning in heart failure (in words): two-week infusion
[5] = system: control 1321N1 astrocytoma cells; assay: Intracellular Ca2+ response in control 1321N1 astrocytoma cells; type: cell-based, human; conditions: 10 μM, untransfected control 1321N1 astrocytoma cells
CSQ-overexpressing mouse = conditions: cited from earlier work
aorta ring preparations = conditions: cited from earlier work
CSQ myocyte = conditions: similar to that by compound 1, characteristic of the P2X4 receptor; cited from earlier work
hP2Y1 receptor = target: T1, hP2Y1 receptor (Homo sapiens, UniProt P47900); conditions: initial characterization, previously reported; read-out: EC50, hP2Y1 receptor agonist, PLC; cited from earlier work
T1 construct: host or cells: said to be the same cell line as the calcium assay (1321N1 astrocytoma cells expressing hP2Y1)
T1 sequence (P47900 whole entry): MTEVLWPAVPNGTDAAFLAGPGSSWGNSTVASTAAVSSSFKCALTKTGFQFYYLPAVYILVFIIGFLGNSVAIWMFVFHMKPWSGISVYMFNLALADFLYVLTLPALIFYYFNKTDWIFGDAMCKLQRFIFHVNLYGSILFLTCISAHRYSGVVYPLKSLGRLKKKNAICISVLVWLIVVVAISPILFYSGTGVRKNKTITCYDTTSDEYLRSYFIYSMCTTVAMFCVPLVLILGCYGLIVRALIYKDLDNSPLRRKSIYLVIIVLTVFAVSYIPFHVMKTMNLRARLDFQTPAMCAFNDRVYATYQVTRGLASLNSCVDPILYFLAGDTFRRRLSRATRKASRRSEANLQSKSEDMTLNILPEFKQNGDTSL

human P2Y1 receptor = target: T2, human P2Y1 receptor (Homo sapiens, UniProt P47900); assay: FLIPR assay of calcium flux in 1321N1 astrocytoma cells stably expressing the human P2Y1 receptor; type: cell-based
T2 construct: T. K. Harden, University of North Carolina School of Medicine; host or cells: 1321N1 human astrocytoma cells
T2 sequence (P47900 whole entry): as above
Description: The phosphonate derivatives were tested in a FLIPR assay of calcium flux induced in 1321N1 astrocytoma cells stably expressing the human P2Y1 receptor.
Cells were grown overnight in 100 ml of medium in 96-well flatbottom plates at 37° C. at 5% CO2 or until they reached ˜80% confluency. The calcium-4 assay kit (Molecular Devices, Sunnyvale, Calif.) was used as directed with no washing of cells. Cells were loaded with 40 mL dye with probenecid in each well and incubated for 1 h at rt. The compound plate was prepared with dilutions of various compounds in Hank's Buffer at pH 7.2. Samples were run in duplicate with a FLIPR-Tetra (Molecular Devices) at rt. Cell fluorescence (excitation=485 nm; emission=525 nm) was monitored following exposure to a compound. Increases in intracellular calcium are reported as the maximum fluorescence value after exposure minus the basal fluorescence value before exposure.

mouse cardiac myocytes = conditions: voltage clamp; cited from earlier work
[6] = 2-week infusion, CSQ mice, NS-infused 0.450±0.007 mm, P<0.05

## Nc1ncnc2c1ncn2[C@H]1[C@H](O)[C@H](O)C2(CCP(=O)(O)O)C[C@H]12 (stereo partly drawn) [Compound 10]
CSQ heart failure mice [1]
  cardioprotection in the CSQ model (in words): not protective
  effect on echocardiography-derived FS / cardiac contractile function versus normal saline (in words): lower FS values; also recorded: did not improve the contractile function
  FS in % in CSQ Mice: 11.15 ± 1.44%

## CCOP(=O)(CC12C[C@@H]1[C@@H](n1cnc3c(N)nc(Cl)nc31)[C@H](O)[C@@H]2O)OCC (stereo partly drawn) [Compound 9a, Diethyl-(1′S,2′R,3′S,4′R,5′S)-4′-(6-amino-2-chloropurin-9-yl)-2′,3′-(hydroxy)-bicyclo[3.1.0]hexane phosphonate]
[2]
  stability to acidic conditions: stable
[3]
  hydrolysis in the presence of mammalian cell membranes: considerable hydrolysis
CSQ heart failure mice [4]; CSQ mice
  cardioprotection in CSQ mice (in words): not protective
  effect on LV fractional shortening versus normal saline (in words): did not improve FS
  prevention of LV wall thinning in heart failure (in words): did not improve FS or prevent LV wall thinning
CSQ heart failure mice [4]
  FS in % in CSQ Mice: 8.58 ± 2.09%

## Nc1nc(Cl)nc2c1ncn2[C@H]1[C@H](O)[C@H](O)C2(CP(=O)(O)O)C[C@H]12 (stereo partly drawn) [Compound 4, (1′S,2′R,3′S,4′R,5′S)-4′-(6-Amino-2-chloropurin-9-yl)-2′,3′-(dihydroxy)-1′-(phosphonomethylene)-bicyclo[3.1.0]hexane]
CSQ heart failure mice [1]
  cardioprotection in the CSQ model (in words): active
  effect on echocardiography-derived FS / cardiac contractile function versus normal saline (in words): increased shortening of both the septum and left ventricular (LV) free wall; also recorded: able to improve in vivo cardiac contractile performance; also recorded: improved echocardiographically derived FS
  FS in % in CSQ Mice: 20.25% and 20.25 ± 1.19%

## Nc1nc(Cl)nc2c1ncn2[C@H]1[C@H](O)[C@H](O)C2(/C=C/P(=O)(O)O)C[C@H]12 (stereo partly drawn) [Compound 7, (1′S,2′R,3′S,4′R,5′S)-4′-(6-Amino-2-chloropurin-9-yl)-2′,3′-(dihydroxy)-1′-[(E)-phosphonoethenyl]-bicyclo[3.1.0]-hexane]
CSQ heart failure mice [1]
  cardioprotection in the CSQ model (in words): not protective
  effect on echocardiography-derived FS / cardiac contractile function versus normal saline (in words): lower FS values
  FS in % in CSQ Mice: 12.12 ± 1.2%
CSQ heart failure mice [4]; CSQ mice
  effect on LV fractional shortening versus normal saline (in words): did not improve FS
  prevention of LV wall thinning in heart failure (in words): did not improve FS or prevent LV wall thinning

## CSc1nc(N)c2ncn([C@@H]3O[C@H](COP(=O)(O)OP(=O)(O)O)[C@@H](O)[C@H]3O)c2n1 [Compound 2-MeSADP, 2-MeSADP]
[5]
  change in intracellular Ca2+ in control cells: no change in intracellular Ca^2+

## Nc1nc(Cl)nc2c1ncn2[C@H]1[C@H](O)[C@H](O)C2(CCP(=O)(O)O)C[C@H]12 (stereo partly drawn) [Compound 9]
CSQ heart failure mice [1]
  cardioprotection in the CSQ model (in words): clearly protective in vivo
  effect on echocardiography-derived FS / cardiac contractile function versus normal saline (in words): improved FS; also recorded: able to enhance cardiac contractile function
  FS in % in CSQ Mice: 19.26% and 19.26 ± 1.23%

## Nc1nc(Cl)nc2c1ncn2[C@H]1[C@H](O)[C@H](O)C2(CSP(=O)(O)O)C[C@H]12 (stereo partly drawn) [Compound 4a]
CSQ heart failure mice [4]; [6]
  LV posterior wall thickness: 0.493±0.016 mm
  LV septal wall thickness: 0.492±0.012 mm
CSQ heart failure mice [4]; CSQ mice
  cardioprotection in CSQ mice (in words): could protect the CSQ mice
CSQ heart failure mice [4]
  FS in % in CSQ Mice: 14.33 ± 3.77%

## Nc1nc(Cl)nc2c1ncn2[C@H]1[C@H](O)[C@H](O)C2(COP(=O)(O)O)C[C@H]12 (stereo partly drawn) [Compound 3, (1′S, 2′R,3′S,4′R,5′S)-4-(6-amino-2-chloro-9H-purin-9-yl)-1-[phosphoryloxymethyl]bicyclo[3.1.0]hexane-2,3-diol]
[2]
  stability to acidic conditions: stable
CSQ-overexpressing mouse; Alzet mini-osmotic pump
  longevity compared to vehicle-injected mice: significantly increased longevity
CSQ-overexpressing mouse; chronic administration
  cross-section area of the cardiac myocytes: decreases
  heart weight/body weight ratio: decreases
CSQ-overexpressing mouse; chronically administered
  hypertrophic and heart failure phenotype: rescued the hypertrophic and heart failure phenotype
[3]
  hydrolysis in the presence of mammalian cell membranes: considerable hydrolysis
Aorta ring preparations
  vasodilator action: inability to dilate aortic rings; also recorded: devoid of any vasodilator action
CSQ myocyte
  current in the CSQ myocyte: induced a current
hP2Y1 receptor
  EC50: 1890 nM
CSQ heart failure mice [1]
  FS in % in CSQ Mice: 15.47 ± 1.15%
Human P2Y1 receptor; 1321-N1, read-out: maximal effect relative to the full agonist 2-MeSADP, hP2Y1 calcium flux
  Emax: ~80%
Human P2Y1 receptor; 1321N1 cells stably expressing hP2Y1, FLIPR-Tetra, n=3, read-out: EC50, Ca2+ flux, hP2Y1 receptor
  EC50: 722 ± 55 nM

## CP(=O)(O)CC12C[C@@H]1[C@@H](n1cnc3c(N)nc(Cl)nc31)[C@H](O)[C@@H]2O (stereo partly drawn) [Compound 11, (1′S,2′R,3′S,4′R,5′S)-4′-(6-Amino-2-chloropurin-9-yl)-2′,3′-dihydroxy-1′-(methylphosphonicacid)-bicyclo[3.1.0]hexane]
CSQ heart failure mice [1]
  effect on echocardiography-derived FS / cardiac contractile function versus normal saline (in words): lower FS values
  FS in % in CSQ Mice: 15.0 ± 1.2%

## Nc1nc(I)nc2c1ncn2[C@H]1[C@H](O)[C@H](O)C2(CP(=O)(O)O)C[C@H]12 (stereo partly drawn) [Compound 7a, (1′S,2′R,3′S,4′R,5′S)-4′-(6-Amino-2-iodoropurin-9-yl)-2′,3′-(dihydroxy)-1′-(phosphonomethylene)-bicyclo[3.1.0]hexane]
CSQ heart failure mice [4]; CSQ mice
  cardioprotection in CSQ mice (in words): abolished protection; also recorded: not protective
  effect on LV fractional shortening versus normal saline (in words): did not improve FS; also recorded: lower FS values
  prevention of LV wall thinning in heart failure (in words): did not improve FS or prevent LV wall thinning
CSQ heart failure mice [4]
  FS in % in CSQ Mice: 10.33 ± 1.77%

## CNc1nc(I)nc2c1ncn2[C@H]1C[C@H](OP(=O)(O)O)[C@]2(COP(=O)(O)O)C[C@H]12 [MRS2500]
Mouse cardiac myocytes
  block of the membrane current evoked by 3: could not block the membrane current evoked by 3

## Nc1ncnc2c1ncn2[C@H]1[C@H](O)[C@H](O)C2(CP(=O)(O)O)C[C@H]12 (stereo partly drawn) [Compound 5, (1′S,2′R,3′S,4′R,5′S)-4′-(6-Aminopurin-9-yl)-2′,3′-(dihydroxy)-1′-(phosphonomethylene)-bicyclo[3.1.0]hexane]
CSQ heart failure mice [1]
  FS in % in CSQ Mice: 16.23 ± 0.93%

## Nc1ncnc2c1ncn2[C@H]1[C@H](O)[C@H](O)C2(/C=C/P(=O)(O)O)C[C@H]12 (stereo partly drawn) [Compound 8, (1′S,2′R,3′S,4′R,5′S)-4′-(6-Aminopurin-9-yl)-2′,3′-(dihydroxy)-1′-[(E)-phosphonoethenyl]-bicyclo[3.1.0]hexane]
CSQ heart failure mice [1]
  cardioprotection in the CSQ model (in words): not protective
  effect on echocardiography-derived FS / cardiac contractile function versus normal saline (in words): lower FS values
  FS in % in CSQ Mice: 13.88 ± 2.12%
